{
  "source": "patent US10603322B2",
  "about": "“Therapeutic targeting of casein kinase 1δ in breast cancer” (The Scripps Research Institute, priority 2015, dated 2020)",
  "key": {"[1]": {"tested_on": "BT474 (HER2+) tumor xenografts", "experiment": "Established orthotopic tumor xenograft", "type": "in vivo, nude mice", "conditions": "20 mg/kg daily i.p.; tumors 100-mm^3 before treatment", "source_text": "(§1) All animal studies are approved by the Scripps Florida IACUC. Stable pools of MDA-MB-231-Luc, MDA-MB-231, MDA-MB-468, SKBR3 or BT474 cells were established by injection of 2×10^6 cancer cells into the mammary fat pads of 6-week old female athymic nude mice (Charles River Laboratories). Establishment of BCM-4013 patient derived xenografts were as described (19). Briefly, fresh xenograft tumor fragments (˜1 mm^3) were transplanted into the cleared mammary fat pad of recipient SCID/Bg mice (Charles River Laboratories). Mice were treated with SR-3029 or vehicle (10:10:80, DMSO:Tween-80:Water) at 20 mg/kg daily by i.p. injection. Tumor volumes were measured as the indicated intervals using calipers or by luminescence imaging using the IVIS 100 imager (exposure time, 1-60 sec; binning 8; field of view 15-cm; f/stop 1; open filter) following subcutaneous injection of luciferin (15 mg/ml, Goldbio Technology). Average radiance (p/s/cm^2/sr) was determined from tumor region-of-interest (ROI) using Living-Image (Xenogen) analysis software."}, "[2]": {"tested_on": "MDA-MB-468 (TNBC) tumor xenografts", "experiment": "Established orthotopic tumor xenograft", "type": "in vivo, nude mice", "conditions": "20 mg/kg daily i.p.; tumors 100-mm^3 before treatment", "source_text": "as §1"}, "[3]": {"tested_on": "SKBR3 (HER2+) tumor xenografts", "experiment": "Established orthotopic tumor xenograft", "type": "in vivo, nude mice", "conditions": "20 mg/kg daily i.p.; tumors 100-mm^3 before treatment", "source_text": "as §1"}, "[4]": {"tested_on": "T47D breast cancer cells", "experiment": "Cell proliferation assay (Cell-Titer Glo, 72 hr)", "type": "cell-based, human", "conditions": "low CK1δ; versus CK1δ overexpressing cells", "description": "(§2) Cell proliferation was measured 72 hr after SR-3029 or vehicle treatment using Cell-Titer Glo (Promega) according to the manufacturers' instructions. EC50 values were determined using non-linear regression and a four-parameter algorithm (GraphPad Prism5). For clonogenic assays, cells were plated in 6-well dishes in triplicate at a density of 500-1000 cells per well. After overnight incubation, SR-3029 or vehicle (DMSO) was added to media for 72 hr and cells were allowed to grow out for 7-10 days, during which media was changed every 2-3 days in the absence of compound. Colonies were fixed in 4% paraformaldehyde/PBS and stained with 0.5% methylene blue in 50% ethanol for 1 hr at room temperature and de-stained with water. Colonies with greater than 50 cells were counted using a low magnification light microscope."}, "[5]": {"tested_on": "MCF7 breast cancer cells", "experiment": "Cell proliferation assay (Cell-Titer Glo, 72 hr)", "type": "cell-based, human", "conditions": "low CK1δ; versus CK1δ overexpressing cells", "description": "as §2"}, "[6]": {"tested_on": "MCF10A cell line", "experiment": "Cell proliferation assay (Cell-Titer Glo, 72 hr)", "type": "cell-based, human", "conditions": "low CK1δ; versus CK1δ overexpressing cells", "description": "as §2"}, "[7]": {"tested_on": "CK1δ and CK1ε", "conditions": "cited from earlier work"}, "[8]": {"tested_on": "Wnt-3a-directed induction of the TCF reporter", "experiment": "Wnt-3a-induced TCF-dependent luciferase reporter assay in HEK293T cells", "type": "cell-based, human", "description": "MDA-MB-231 or HEK293 cells stably expressing the TCF luciferase reporter 7TFP (39) were transfected with β-catenin-S33Y or empty vector (pcDNA). After 18 hr cells were seeded onto a 96-well plate at a density of 6000 cells/well. After 24 hr cells were treated with SR-3029 or vehicle and incubated for 6 hr prior to addition of 1 μg/ml recombinant human Wnt3a (R&D Systems) or PBS. After 3 hr, reporter assays were performed using BriteLite Plus (Perkin Elmer), which was added in equal volume directly to the media and luminescence read using a Spectramax plate reader (Molecular Devices)."}, "[9]": {"tested_on": "β-catenin/TCF target genes", "experiment": "Expression of Wnt/β-catenin and Notch pathway genes (immunoblot, qPCR)", "type": "cell-based, human", "conditions": "24 hr, 100 nM", "description": "SDS-PAGE gel electrophoresis was performed using NuPAGE 4-12% Bis-Tris gels (Invitrogen) and transferred to PVDF membranes by semi-dry transfer using trans-blot transfer medium (Biorad). Membranes were blocked in Odyssey blocking buffer (LI-COR Biosciences) and incubated overnight at 4° C. with primary antibodies. After repeated washes with TBST (20 mM Tris, pH 7.6, 140 mM NaCl and 0.1% Tween-20) blots were incubated with the appropriate IRDye-conjugated secondary antibody (LI-COR Biosciences) and imaged using the LI-COR Odyssey. Bands were quantified using the Odyssey software (LI-COR Biosciences). The following antibodies were used in this study: CK1δ and Histone H4 (Abcam), CK1ε, c-Myc (9E10), Cyclin-D1 and β-actin (Santa Cruz), β-catenin (Cell Signaling), GAPDH (Millipore) and CD44 (R&D Systems).\nTotal RNA was obtained using the RNeasy Plus Mini Kit (Qiagen) and 1-2 μg of RNA was reverse transcribed with Superscript III First Strand Synthesis System (Life Technologies). Quantitative PCR was performed using the Power SYBR Green PCR Master Mix (Life Technologies) and the ABI7900HT Fast Real-Time PCR System. Intron-spanning gene-specific primer pairs were designed using the Primer3 algorithm and relative expression values for each gene of interest obtained by normalizing to GAPDH mRNA expression using the ^ΔΔCt method."}, "[10]": {"tested_on": "MDA-MB-231 tumor xenografts", "experiment": "Established orthotopic tumor xenograft", "type": "in vivo, nude mice", "conditions": "20 mg/kg daily i.p.", "source_text": "as §1\nFor apoptotic detection in cryosections tumors and small intestines were fixed in 10% buffered formalin for 2 hr, incubated in 20% sucrose overnight and embedded in OCT. Frozen sections ([…]) were mounted and stained using the ApopTag Red In Situ Kit according to the manufacturer instructions (CHEMICON). For H&E staining, tissues were fixed in 10% buffered formalin for 48 hr, transferred to 70% ethanol/PBS and embedded in paraffin. Staining was performed on […] sections following deparaffinization (AML Laboratories)."}, "[11]": {"tested_on": "BCM-4013 PDX tumors", "experiment": "Patient-derived xenograft (PDX) model", "type": "in vivo, SCID/Bg mice", "conditions": "20 mg/kg daily i.p.", "source_text": "as §1\nFor apoptotic detection in cryosections tumors and small intestines were fixed in 10% buffered formalin for 2 hr, incubated in 20% sucrose overnight and embedded in OCT. Frozen sections ([…]) were mounted and stained using the ApopTag Red In Situ Kit according to the manufacturer instructions (CHEMICON). […]"}, "[12]": {"tested_on": "CK1δ overexpressing breast cancer cells", "experiment": "Apoptosis by PI/Annexin V FACS", "type": "cell-based, human", "conditions": "72 hr treatment", "description": "2×10^5 cells seeded in triplicate in 6-well dishes were cultured with SR-3029 or vehicle for 72 hr. Cells were then harvested and stained with Annexin V-FITC and PI using the Annexin V-FITC Apoptosis Detection Kit (BioVision) per the manufacturer's instructions and analyzed using the LSRI II flow cytometer (Becton Dickinson). Staurosporine (Cell Signaling) treated cells (1 μM) were used as positive/compensation controls."}, "[13]": {"conditions": "in vivo; cited from earlier work"}, "[14]": {"tested_on": "kinome", "conditions": "cited from earlier work"}},
  "data": [
    {"smiles": "Fc1cccc(-n2cnc3c(NCc4nc5ccc(F)c(F)c5[nH]4)nc(N4CCOCC4)nc32)c1", "note": "[SR-3029]", "values": [
      {"measurement": "tumor growth", "setting": "[1]", "value": "marked tumor growth inhibition"},
      {"measurement": "tumor growth", "setting": "[2]", "value": "marked tumor growth inhibition"},
      {"measurement": "tumor growth", "setting": "[3]", "value": "marked tumor growth inhibition"},
      {"measurement": "sensitivity in cell proliferation assay", "setting": "[4]", "value": "2-3 orders of magnitude less sensitive"},
      {"measurement": "sensitivity in cell proliferation assay", "setting": "[5]", "value": "2-3 orders of magnitude less sensitive and relative insensitivity and refractory"},
      {"measurement": "sensitivity in cell proliferation assay", "setting": "[6]", "value": "2-3 orders of magnitude less sensitive"},
      {"measurement": "type of inhibition, potency and selectivity", "setting": "[7]", "value": "ATP competitive inhibitor with exceptional potency and selectivity"},
      {"measurement": "Wnt-3a-directed induction of the TCF reporter", "setting": "[8]; 1 μg/ml Wnt-3a, 3 hr", "value": "abolished"},
      {"measurement": "TCF reporter activity with constitutively active β-catenin (S33Y)", "setting": "[8]; forced expression of β-catenin S33Y", "value": "refractory"},
      {"measurement": "Notch pathway mRNAs (JAG1, NUMB, DTX)", "setting": "[9]", "value": "no effect"},
      {"measurement": "expression of endogenous β-catenin/TCF target genes (CCND1, MYC, CD44, WNT3, WNT9A)", "setting": "[9]", "value": "repressed"},
      {"measurement": "expression of the endogenous Wnt antagonist SFRP1", "setting": "[9]", "value": "marked increase"},
      {"measurement": "lifespan (Kaplan-Meier survival)", "setting": "[10]", "value": "significantly prolonged lifespan"},
      {"measurement": "tumor apoptosis (TUNEL)", "setting": "[10]", "value": "fulminant apoptosis"},
      {"measurement": "tumor growth", "setting": "[10]; tumors 100-mm^3 before treatment", "value": "marked tumor growth inhibition"},
      {"measurement": "tumor cell apoptosis (TUNEL)", "setting": "[11]", "value": "triggered tumor cell apoptosis"},
      {"measurement": "growth of PDX tumors", "setting": "[11]; p=0.0002", "value": "significantly inhibited the growth"},
      {"measurement": "apoptosis", "setting": "[12]", "value": "selectively triggered rapid apoptosis"},
      {"measurement": "pharmacokinetic properties", "setting": "[13]", "value": "amenable for in vivo studies"},
      {"measurement": "off-target kinase affinity", "setting": "[14]; CDK4, MYLK4 and FLT3, in addition to CK1δ and CK1ε", "value": "weaker affinity for only three kinases"},
      {"measurement": "fraction of the kinome inhibited", "setting": "[14]", "value": 1, "unit": "%"}
    ]}
  ]
}
